Values of other authors in patent US20100120733A1, “STEROID MODULATORS OF GLUCOCORTICOID RECEPTOR” (AUSPEX PHARMACEUTICALS, INC., priority 2008, published 2010).

Conditions: pooled data

SMILES | elimination half-life
CC(C)C(=O)OCC(=O)[C@@]12O[C@H](C3CCCCC3)O[C@@H]1C[C@H]1[C@@H]3CCC4=CC(=O)C=C[C@]4(C)[C@H]3[C@@H](O)C[C@@]12C [ciclesonide, 16,17-[[(R)-cyclohexylmethylene]bis(oxy)]-11-hydroxy-21-(2-methyl-1-oxopropoxy)-(11-beta,16-alpha)-pregna-1,4-diene-3,20-dione] | 0.71 h
C[C@]12C=CC(=O)C=C1CC[C@@H]1[C@@H]2[C@@H](O)C[C@@]2(C)[C@H]1C[C@H]1O[C@@H](C3CCCCC3)O[C@]12C(=O)CO [des-CIC, desisobutyryl-ciclesonide] | 3.5 h
